Where two headings read alike, the source gives them in different places.
Test system: C. acnes (BNCC 336649)
Conditions: for Concentration with antimicrobial activity >50%: C. acnes; for Concentration with antimicrobial activity >50% / Category of in vitro test antimicrobial activity against C. acnes: supplementary Table 5; for Antimicrobial activity > 50% against C. acnes: broth microdilution, 48 h, OD 630 nm
Method: The strain of C. acnes (BNCC 336649) was cultured in Wilkins-Chalgren Anaerobe Broth (QingDao RiShui Bio-technologies, 11071) at 37 °C under an anaerobic atmosphere performed by a Labiophy HL-B automatic hypoxic workstation (Dalian, Liaoning Province, Labiophy HL-B), inflated with a gas mix of 15% carbon dioxide, 83% nitrogen, and 2% hydrogen.
Logarithmic phase growth bacteria were used for antimicrobial testing.
To determine the MIC values, the broth microdilution method was used. […] Briefly, peptide samples were prepared as a stock solution in water and then diluted. 180 μL of the bacterial suspension (10^7 CFU/mL) and 20 μL of the tested sample were added together into 96-Well Deep Well Plates and incubated 24 h for E. coli and S. aureus or 48 h for C. acnes and C. albicans. For each test, two columns of the plate were kept for sterility control (broth only) and growth control (broth with bacterial inoculums, no antibiotics). The optical density of cultures was measured at 630 nm by a microplate reader (SYNERGY-H1, BioTek, USA) to estimate bacterial growth. All experiments were conducted in triplicate. We used ciprofloxacin (CPFX) as the antibiotic control for antimicrobial testing.

Sequence	Concentration with antimicrobial activity >50%	Antimicrobial activity > 50% against C. acnes (at 25 µg/mL)	Antimicrobial activity > 50% against C. acnes (at 50 µg/mL)	Antimicrobial activity > 50% against C. acnes (at 100 µg/mL)	Category of in vitro test antimicrobial activity against C. acnes
KIFWRVAKSLFKSY [AMP-30]	100 µg/mL	No (A peptide was deemed to have antimicrobial activity if C. acnes growth was inhibited by more than 50% at a given concentration)	No (A peptide was deemed to have antimicrobial activity if C. acnes growth was inhibited by more than 50% at a given concentration)	Inhibit (A peptide was deemed to have antimicrobial activity if C. acnes growth was inhibited by more than 50% at a given concentration)	Weak AMP
VKRLKKAFKKLARLV [AMP-32]	–	No (A peptide was deemed to have antimicrobial activity if C. acnes growth was inhibited by more than 50% at a given concentration)	Inhibit (A peptide was deemed to have antimicrobial activity if C. acnes growth was inhibited by more than 50% at a given concentration)	Inhibit (A peptide was deemed to have antimicrobial activity if C. acnes growth was inhibited by more than 50% at a given concentration)	Medium AMP
KALAATVKKVAKLIK [AMP-34]	no	No (A peptide was deemed to have antimicrobial activity if C. acnes growth was inhibited by more than 50% at a given concentration)	No (A peptide was deemed to have antimicrobial activity if C. acnes growth was inhibited by more than 50% at a given concentration)	No (A peptide was deemed to have antimicrobial activity if C. acnes growth was inhibited by more than 50% at a given concentration)	No AMP
KRLIKWLNVAKKVV [AMP-3]	100 µg/mL	No (A peptide was deemed to have antimicrobial activity if C. acnes growth was inhibited by more than 50% at a given concentration)	No (A peptide was deemed to have antimicrobial activity if C. acnes growth was inhibited by more than 50% at a given concentration)	Inhibit (A peptide was deemed to have antimicrobial activity if C. acnes growth was inhibited by more than 50% at a given concentration)	Weak AMP
LQLLKQFRKVLKKLS [AMP-13]	25 µg/mL	Inhibit (A peptide was deemed to have antimicrobial activity if C. acnes growth was inhibited by more than 50% at a given concentration)	Inhibit (A peptide was deemed to have antimicrobial activity if C. acnes growth was inhibited by more than 50% at a given concentration)	Inhibit (A peptide was deemed to have antimicrobial activity if C. acnes growth was inhibited by more than 50% at a given concentration)	Medium AMP
GLVSRLRRLVTPLL [AMP-4]	–	No (A peptide was deemed to have antimicrobial activity if C. acnes growth was inhibited by more than 50% at a given concentration)	Inhibit (A peptide was deemed to have antimicrobial activity if C. acnes growth was inhibited by more than 50% at a given concentration)	Inhibit (A peptide was deemed to have antimicrobial activity if C. acnes growth was inhibited by more than 50% at a given concentration)	Medium AMP
KAIAALAKKIIKVAK [AMP-24]	no	No (A peptide was deemed to have antimicrobial activity if C. acnes growth was inhibited by more than 50% at a given concentration)	No (A peptide was deemed to have antimicrobial activity if C. acnes growth was inhibited by more than 50% at a given concentration)	No (A peptide was deemed to have antimicrobial activity if C. acnes growth was inhibited by more than 50% at a given concentration)	No AMP
DALRALHHLLKRAL [AMP-42]	no	No (A peptide was deemed to have antimicrobial activity if C. acnes growth was inhibited by more than 50% at a given concentration)	No (A peptide was deemed to have antimicrobial activity if C. acnes growth was inhibited by more than 50% at a given concentration)	No (A peptide was deemed to have antimicrobial activity if C. acnes growth was inhibited by more than 50% at a given concentration)	No AMP
VKRILKWAFK [AMP-1]	–	No (A peptide was deemed to have antimicrobial activity if C. acnes growth was inhibited by more than 50% at a given concentration)	Inhibit (A peptide was deemed to have antimicrobial activity if C. acnes growth was inhibited by more than 50% at a given concentration)	Inhibit (A peptide was deemed to have antimicrobial activity if C. acnes growth was inhibited by more than 50% at a given concentration)	Medium AMP
NRWLKAAKVAAKVI [AMP-36]	no	No (A peptide was deemed to have antimicrobial activity if C. acnes growth was inhibited by more than 50% at a given concentration)	No (A peptide was deemed to have antimicrobial activity if C. acnes growth was inhibited by more than 50% at a given concentration)	No (A peptide was deemed to have antimicrobial activity if C. acnes growth was inhibited by more than 50% at a given concentration)	No AMP
GIGALVKFLPKLFK [AMP-41]	25 µg/mL	Inhibit (A peptide was deemed to have antimicrobial activity if C. acnes growth was inhibited by more than 50% at a given concentration)	Inhibit (A peptide was deemed to have antimicrobial activity if C. acnes growth was inhibited by more than 50% at a given concentration)	Inhibit (A peptide was deemed to have antimicrobial activity if C. acnes growth was inhibited by more than 50% at a given concentration)	Medium AMP
FLGQLKNFFKKLAS [AMP-7]	–	No (A peptide was deemed to have antimicrobial activity if C. acnes growth was inhibited by more than 50% at a given concentration)	Inhibit (A peptide was deemed to have antimicrobial activity if C. acnes growth was inhibited by more than 50% at a given concentration)	Inhibit (A peptide was deemed to have antimicrobial activity if C. acnes growth was inhibited by more than 50% at a given concentration)	Medium AMP

From PMC10894229, “Novel antimicrobial peptides against Cutibacterium acnes designed by deep learning” (Scientific Reports, 2024)
